Results: patent US20200246316A1, “METHODS OF TREATING POST-SURGICAL PAIN WITH A THIAZOLINE ANTI-HYPERALGESIC AGENT” (CERSCI THERAPEUTICS, INC., priority 2019, published 2020)

Experiments:
[1] = system: rat hind paw incision model; experiment: Brennan incisional pain model, prophylactic paradigm; assay type: in vivo; settings: single pre-surgical dose; 24 h, 48 h, 72 h post dose; FIG. 11
Text: (§1) Two incisional pain models were used to assess Compound 1 effects on hyperalgesia. The first model is referred to as the Brennan model in which, under anesthesia, a 1 cm longitudinal incision to the skin and underlying fascia of a rat hindpaw is made. The second is a variation but is a more invasive procedure in which the skin and muscle are spread apart using forceps which creates a longer-lasting hypersensitivity.
Using the Brennan protocol and a prophylactic paradigm, Compound 1 (3 doses given PO) or vehicle was administered 15 min prior to incision. At the 24-, 48-, and 72-h time points post-incision, mechanical thresholds were obtained (manual von Frey filament, using up/down method).
In a subsequent experiment, the same paradigm was used with Compound 1 administered at a dose of 30 mg/kg PO along with positive control group consisting of celecoxib (30 mg/kg PO), morphine (10 mg/kg SC), and vehicle.

[2] = system: established incision-induced mechanical hyperalgesia; experiment: Brennan incisional pain model, treatment paradigm; assay type: in vivo, rat; settings: morphine 3 mg/kg SC
Text: as §1
Using the Brennan protocol and a treatment paradigm in rat, Compound 1 (10 and 30 mg/kg PO), morphine (3 mg/kg SC) or vehicle were administered daily at 24 h post-incision, and again at 48 and 72 h post-incision. Mechanical thresholds were obtained at 1 h and 2 h post-dose in all cohorts on all days.

For `Cc1ccc(-c2cc(C(F)(F)F)nn2-c2ccc(S(N)(=O)=O)cc2)cc1` [celecoxib, reference compound], the “effect on development of mechanical hyperalgesia” value [1] was “no effect”.

With `CN1CC[C@]23c4c5ccc(O)c4O[C@H]2[C@@H](O)C=C[C@H]3[C@H]1C5` [morphine, reference compound] the “effect on development of mechanical hyperalgesia” value [1] was “no effect”, the “effect on established mechanical hyperalgesia (overall)” value ([2]; Compound 1 10 and 30 mg/kg PO daily, FIG. 12) was “analgesic at t=1 h on d1, and at t=1 h and 2 h post-dose on d2 and d3” and the analgesia ([2]; Day 1, 2-h time point) was “this effect waned”. For the same compound, the mechanical threshold ([2]; Day 1, 1 h post-dose) was 45 g, the hyperalgesia ([2]; Day 2, 1-h time point) was “not hyperalgesic” and the hyperalgesia ([2]; Day 2, 2 h) was “mild hyperalgesia”. The mechanical threshold ([2]; Day 2 prior to dosing (Pre-Drug (D2))) was under 15 g.
